Experimental data taken from PubChem BioAssay AID1918999 (Molecular Pharmacology Branch, DTP, NCI, 2023).
pIC50: −log10 of the molar value.

Tested on: 556581-035-R-J1-PDC complex spheroid growth
Experiment: Anticancer human tumor 556581-035-R-J1-PDC patient-derived ovarian carcinoma cell line growth inhibition [AhR]
Conditions: for pIC50: curve of first compound; for viability, T/C: stronger effect = lower value
In short: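 Complex tumor spheroids co-cultured with HUVEC and human MSC stroma; AhR antagonists tested in combination with standard-of-care and investigational agents. Top concentration at or near clinical Cmax (else 10 microM), half-log dilutions; growth expressed as percent test/control.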

[1] = second compound 0.1 µM, first compound 0.0316 µM
[2] = second compound 0.1 µM, first compound 0.1 µM
[3] = second compound 0.1 µM, first compound 0.316 µM
[4] = second compound 0.1 µM, first compound 1 µM
[5] = second compound 0.1 µM, first compound 3.16 µM
[6] = second compound 0.1 µM, first compound 10 µM
[7] = second compound 0.316 µM, first compound 0.0316 µM
[8] = second compound 0.316 µM, first compound 0.1 µM
[9] = second compound 0.316 µM, first compound 0.316 µM
[10] = second compound 0.316 µM, first compound 1 µM
[11] = second compound 0.316 µM, first compound 3.16 µM
[12] = second compound 0.316 µM, first compound 10 µM
[13] = second compound 1 µM, first compound 0.0316 µM
[14] = second compound 1 µM, first compound 0.1 µM
[15] = second compound 1 µM, first compound 0.316 µM
[16] = second compound 1 µM, first compound 1 µM
[17] = second compound 1 µM, first compound 3.16 µM
[18] = second compound 1 µM, first compound 10 µM
[19] = second compound 3.16 µM, first compound 0.0316 µM
[20] = second compound 3.16 µM, first compound 0.1 µM
[21] = second compound 3.16 µM, first compound 0.316 µM
[22] = second compound 3.16 µM, first compound 1 µM
[23] = second compound 3.16 µM, first compound 3.16 µM
[24] = second compound 3.16 µM, first compound 10 µM
[25] = second compound 10 µM, first compound 0.0316 µM
[26] = second compound 10 µM, first compound 0.1 µM
[27] = second compound 10 µM, first compound 0.316 µM
[28] = second compound 10 µM, first compound 1 µM
[29] = second compound 10 µM, first compound 3.16 µM
[30] = second compound 10 µM, first compound 10 µM
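Wherever viability, T/C is given: compound exposure lasted 7 days; 100% = DMSO vehicle control growth.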

pIC50 (second compound 0.1 µM) | pIC50 (second compound 0.316 µM) | pIC50 (second compound 1 µM) | pIC50 (second compound 3.16 µM) | pIC50 (second compound 10 µM) | SMILES | viability, T/C [1] [%] | viability, T/C [2] [%] | viability, T/C [3] [%] | viability, T/C [4] [%] | viability, T/C [7] [%] | viability, T/C [8] [%] | viability, T/C [9] [%] | viability, T/C [10] [%] | viability, T/C [13] [%] | viability, T/C [14] [%] | viability, T/C [15] [%] | viability, T/C [16] [%] | viability, T/C [19] [%] | viability, T/C [20] [%] | viability, T/C [21] [%] | also measured
< 5.00 | < 5.00 | < 5.00 | < 5.00 | < 5.00 | CC(C)c1c(-c2ccccc2)nc2c(C#N)c[nH]n2c1=O + Cc1cncc(-c2nc(NCCc3c[nH]c4ccccc34)c3ncn(C(C)C)c3n2)c1 | 110 | 106 | 102 | 103 | 106 | 110 | 96.9 | 108 | 97.4 | 107 | 114 | 102 | 98.6 | 104 | 99.2 | viability, T/C [5]: 108%; viability, T/C [6]: 88.5%; viability, T/C [11]: 95.6%; viability, T/C [12]: 96.3%; viability, T/C [17]: 91.8%; viability, T/C [18]: 102%; viability, T/C [22]: 92.7%; viability, T/C [23]: 95.5%; viability, T/C [24]: 90.5%; viability, T/C [25]: 76.5%; viability, T/C [26]: 84%; viability, T/C [27]: 90%; viability, T/C [28]: 71.1%; viability, T/C [29]: 68.2%; viability, T/C [30]: 70.7%
6.21 | 6.29 | 6.10 | 6.12 | 6.06 | CC1COCCN1c1cc(-c2ccnn2C)c2ccnc(-c3ccn[nH]3)c2n1 (stereo not given) + Cc1cncc(-c2nc(NCCc3c[nH]c4ccccc34)c3ncn(C(C)C)c3n2)c1 | 89.8 | 82.2 | 62.8 | 40.5 | 93.2 | 83 | 55.6 | 41.9 | 101 | 83.8 | 57.4 | 48 | 88.6 | 75.7 | 62.4 | viability, T/C (second compound 0.1 µM, first compound 0.00316 µM): 99.4%; viability, T/C (second compound 0.1 µM, first compound 0.01 µM): 96.1%; viability, T/C (second compound 0.316 µM, first compound 0.00316 µM): 98.2%; viability, T/C (second compound 0.316 µM, first compound 0.01 µM): 104%; viability, T/C (second compound 1 µM, first compound 0.00316 µM): 100%; viability, T/C (second compound 1 µM, first compound 0.01 µM): 102%; viability, T/C (second compound 3.16 µM, first compound 0.00316 µM): 101%; viability, T/C (second compound 3.16 µM, first compound 0.01 µM): 95.1%; viability, T/C [22]: 46.2%; viability, T/C (second compound 10 µM, first compound 0.00316 µM): 77.6%; viability, T/C (second compound 10 µM, first compound 0.01 µM): 71.9%; viability, T/C [25]: 71.4%; viability, T/C [26]: 64.3%; viability, T/C [27]: 57.7%; viability, T/C [28]: 49%
5.51 | 5.14 | 5.38 | 5.16 | 5.01 | COc1ccc([C@@H](O)c2cc(-c3ncnc4cc(N5CCOCC5)ccc34)c(F)cc2Cl)nn1 + Cc1cncc(-c2nc(NCCc3c[nH]c4ccccc34)c3ncn(C(C)C)c3n2)c1 | 113 | 114 | 108 | 72.2 | 110 | 105 | 102 | 77.8 | 111 | 112 | 116 | 87.9 | 103 | 113 | 88.5 | viability, T/C [5]: 51.4%; viability, T/C [6]: 45.6%; viability, T/C [11]: 60.8%; viability, T/C [12]: 45.8%; viability, T/C [17]: 53.8%; viability, T/C [18]: 42.5%; viability, T/C [22]: 82.6%; viability, T/C [23]: 54.2%; viability, T/C [24]: 47.8%; viability, T/C [25]: 82.2%; viability, T/C [26]: 85.7%; viability, T/C [27]: 89.1%; viability, T/C [28]: 74.8%; viability, T/C [29]: 61.5%; viability, T/C [30]: 49.5%
